Measured values taken from patent US20210040062A1, “AZOLE-SUBSTITUTED PYRIDINE COMPOUND” (TAISHO PHARMACEUTICAL CO., LTD., priority 2016, published 2021).

What was measured:
[1] = target: T1, human CYP4F2 (Homo sapiens, UniProt P78329); experiment: CYP4F2 inhibition test (Test Example 1); format: biochemical; conditions: Escherichia coli membrane fraction expressing human CYP4F2, 2.5 μM luciferine derivative, room temperature 60 minutes, luminescence
T1 construct: host or cells: Escherichia coli (membrane fraction)
T1 sequence (P78329 5-520): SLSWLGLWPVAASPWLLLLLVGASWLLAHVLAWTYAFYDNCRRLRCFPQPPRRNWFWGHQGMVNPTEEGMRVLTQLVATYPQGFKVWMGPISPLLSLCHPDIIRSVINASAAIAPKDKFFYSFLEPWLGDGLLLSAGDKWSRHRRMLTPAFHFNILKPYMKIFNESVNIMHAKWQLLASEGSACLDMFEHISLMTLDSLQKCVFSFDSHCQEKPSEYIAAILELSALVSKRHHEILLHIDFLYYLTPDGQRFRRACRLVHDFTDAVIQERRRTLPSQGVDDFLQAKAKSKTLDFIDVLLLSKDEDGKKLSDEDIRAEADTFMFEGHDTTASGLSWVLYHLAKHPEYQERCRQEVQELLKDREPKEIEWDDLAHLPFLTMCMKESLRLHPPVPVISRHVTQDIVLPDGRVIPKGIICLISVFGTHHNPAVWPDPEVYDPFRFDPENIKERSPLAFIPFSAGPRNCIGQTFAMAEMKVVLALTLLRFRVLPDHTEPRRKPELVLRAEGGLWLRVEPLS
Method in brief: (§1)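 E. coli membranes expressing human enzyme (100 μg/mL protein) with luciferin-derivative substrate, 60 min at room temperature, then luminescence read. CYP4F2: 50 mM KPO4 pH 7.4, 2.5 μM substrate, 1 mM NADPH. CYP4A11: 100 mM Tris-HCl pH 7.5, 60 μM substrate, NADP+/glucose 6-phosphate regenerating system.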

[2] = target: T2, human CYP4A11 (Homo sapiens, UniProt Q02928); experiment: CYP4A11 inhibition test (Test Example 1); format: biochemical; conditions: Escherichia coli membrane fraction expressing human CYP4A11, 60 μM luciferine derivative, room temperature 60 minutes, luminescence
T2 construct: host or cells: Escherichia coli (membrane fraction)
T2 sequence (Q02928 5-519): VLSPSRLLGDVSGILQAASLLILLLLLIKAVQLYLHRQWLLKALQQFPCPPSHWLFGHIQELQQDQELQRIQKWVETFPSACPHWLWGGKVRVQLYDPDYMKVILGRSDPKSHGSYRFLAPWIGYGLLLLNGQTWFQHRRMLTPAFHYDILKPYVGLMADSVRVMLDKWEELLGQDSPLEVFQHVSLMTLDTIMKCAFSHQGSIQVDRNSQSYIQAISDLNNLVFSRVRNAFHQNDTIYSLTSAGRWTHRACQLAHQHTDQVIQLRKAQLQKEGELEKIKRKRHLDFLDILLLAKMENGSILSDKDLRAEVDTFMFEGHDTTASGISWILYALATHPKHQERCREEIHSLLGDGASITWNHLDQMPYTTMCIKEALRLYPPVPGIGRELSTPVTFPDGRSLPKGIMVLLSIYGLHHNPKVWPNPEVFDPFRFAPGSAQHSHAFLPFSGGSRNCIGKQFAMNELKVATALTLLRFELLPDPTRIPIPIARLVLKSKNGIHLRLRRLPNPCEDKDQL
Method in brief: as §1

| IC50 [1] [nM] | IC50 [2] [nM] | SMILES |
| --- | --- | --- |
| 110 | 45 | CS(=O)(=O)c1cccc(COc2cnc(-c3ccn[nH]3)c(F)c2)c1 [Example 25-5] |
| 62 | 95 | FC(F)c1cc(COc2ccc(-c3ccn[nH]3)nc2)ccn1 [Example 25-6] |
| 57 | 910 | FC(F)c1cncc(COc2ccc(-c3ccn[nH]3)nc2)c1 [Example 25-7] |
| 230 | 2500 | c1cc(-c2ccc(OCc3cncc(-n4nccn4)c3)cn2)[nH]n1 [Example 25-8] |
| 12 | 1300 | c1cc(-c2ccc(OCc3ccnc(-n4cncn4)c3)cn2)[nH]n1 [Example 25-9] |
| 20 | 1100 | COc1ccc(COc2ccc(-c3ccn[nH]3)nc2)cc1S(C)(=O)=O [Example 25-10] |
| 3 | 1600 | O=c1ccc2cc(COc3ccc(-c4ccn[nH]4)nc3)ccc2o1 [Example 25-11] |
| 1600 | 75 | FC(F)(F)c1cc(COc2ccc(-c3ccn[nH]3)nc2)cc(C(F)(F)F)c1 [Example 25-12] |
| 190 | 36 | CC1(C)Cc2cc(COc3ccc(-c4ccn[nH]4)nc3)cc(Cl)c2O1 [Example 25-13] |
| 16 | 410 | c1ccc2cc(COc3ccc(-c4ccn[nH]4)nc3)ccc2c1 [Example 25-14] |
| 11 | 2700 | c1cc(-c2ccc(OCc3ccc4nccnc4c3)cn2)[nH]n1 [Example 25-15] |
| 3.2 | 2200 | COc1ccc2ccc(COc3ccc(-c4ccn[nH]4)nc3)cc2n1 [Example 25-16] |
| 96 | 6000 | CS(=O)(=O)c1ccc(COc2ccc(-c3ccn[nH]3)nc2)cc1 [Example 25-18] |
| 83 | 100 | FC(F)(F)Sc1cccc(COc2ccc(-c3ccn[nH]3)nc2)c1 [Example 25-19] |
| 14 | 1200 | FC(F)(F)c1ccc(COc2ccc(-c3ccn[nH]3)nc2)cc1 [Example 25-20] |
| 40 | 2400 | Cc1ccc(S(=O)(=O)c2ccc(COc3ccc(-c4ccn[nH]4)nc3)cc2)cc1 [Example 25-21] |
| 9.2 | 1500 | FC(F)(F)Oc1ccc(COc2ccc(-c3ccn[nH]3)nc2)cc1 [Example 25-22] |
| 52 | 160 | FC(F)(F)Oc1cccc(COc2ccc(-c3ccn[nH]3)nc2)c1 [Example 25-23] |
| 350 | 2500 | CC1CCCC(C)N1C(=O)c1cccc(COc2ccc(-c3ccn[nH]3)nc2)c1 (centres unmarked) [Example 25-24] |
| 5.1 | > 50000 | C(=C\c1ccc(COc2ccc(-c3ccn[nH]3)nc2)cc1)/c1ccccc1 [Example 25-28] |
| 88 | 67 | FC(F)(F)c1cccc(COc2ccc(-c3ccn[nH]3)nc2)c1 [Example 25-29] |
| 240 | 220 | CC(=O)N1CCC(COc2ccc(-c3cn[nH]c3)nc2)CC1 [Example 39-1, 1-(4-{[6-(1H-Pyrazol-4-yl)pyridin-3-yl]oxymethyl}piperidin-1-yl)ethanone] |
| 320 | 95 | CS(=O)(=O)c1ccccc1CCOc1ccc(-c2cn[nH]c2)nc1 [Example 39-2] |

| IC50 [1] [nM] | IC50 [2] [nM] | SMILES |
| --- | --- | --- |
| 12000 | 12000 | CS(=O)(=O)c1cccc(COc2ccc(-c3[nH]ncc3C(F)(F)F)nc2)c1 [Example 40-1, 5-[(3-Methylsulfonylphenyl)methoxy]-2-[4-(trifluoromethyl)-1H-pyrazol-5-yl]pyridine] |
| 470 | 120 | CS(=O)(=O)c1cccc(COc2ccc(-c3cn[nH]c3)nc2)c1 [Example 41-1, 5-[(3-Methylsulfonylphenyl)methoxy]-2-(1H-pyrazol-4-yl)pyridine] |
| 4300 | 1100 | Cc1n[nH]cc1-c1ccc(OCc2cccc(S(C)(=O)=O)c2)cn1 [Example 41-2] |
| 1600 | 520 | CS(=O)(=O)c1cccc(COc2ccc(-c3cnsc3)nc2)c1 [Example 41-3] |
| 44 | 110 | CC(=O)N1CCC(COc2ccc(-c3ccns3)nc2)CC1 [Example 42-1, 1-(4-{[6-(1,2-Thiazol-5-yl)pyridin-3-yl]oxymethyl}piperidin-1-yl)ethanone] |
| 140 | 65 | CS(=O)(=O)c1cccc(COc2ccc(-c3ccns3)nc2)c1 [Example 42-2] |
| 3100 | 4800 | CC(=O)N1CCC(COc2ccc(-c3c[nH]nn3)nc2)CC1 [Example 43-1, 1-(4-{[6-(1H-Triazol-4-yl)pyridin-3-yl]oxymethyl}piperidin-1-yl)ethanone] |
| 250 | 1300 | CC(=O)N1CCC(COc2ccc(-c3ncn[nH]3)nc2)CC1 [Example 43-2] |
| 3800 | 600 | O=S1(=O)CCC(COc2ccc(-c3cn[nH]c3)nc2)CC1 [Example 43-3] |
| 5400 | 390 | O=S1(=O)CCCC(COc2ccc(-c3cn[nH]c3)nc2)C1 (centres unmarked) [Example 43-4] |
| 3400 | 290 | O=S1(=O)CCC(CCOc2ccc(-c3cn[nH]c3)nc2)CC1 [Example 43-5] |
| 3500 | 420 | O=S1(=O)CCCC(CCOc2ccc(-c3cn[nH]c3)nc2)C1 (centres unmarked) [Example 43-6] |
| 9000 | 2400 | CS(=O)(=O)c1cccc(COc2ccc(-c3c[nH]nn3)nc2)c1 [Example 44-1, 5-[(3-Methylsulfonylphenyl)methoxy]-2-(1H-triazol-4-yl)pyridine] |
| 370 | 1300 | CC(=O)N1CCC(COc2ccc(-n3ccnn3)nc2)CC1 [Example 45-1, 1-(4-{[6-(Triazol-1-yl)pyridin-3-yl]oxymethyl}piperidin-1-yl)ethanone] |
| 3100 | 640 | CS(=O)(=O)c1cccc(COc2ccc(-n3ccnn3)nc2)c1 [Example 45-2] |
| 26 | 55 | CC(=O)N1CCC(COc2ccc(-n3cncn3)nc2)CC1 [Example 45-3] |
| 220 | 31 | CS(=O)(=O)c1cccc(COc2ccc(-n3cncn3)nc2)c1 [Example 45-4] |
| 1600 | 11000 | CC(=O)N1CCC(COc2ccc(-n3cnnc3)nc2)CC1 [Example 45-5] |
| 16000 | 5700 | CS(=O)(=O)c1cccc(COc2ccc(-n3cnnc3)nc2)c1 [Example 45-6] |
| 7500 | 3900 | CS(=O)(=O)c1cccc(COc2ccc(-c3[nH]ncc3C(F)F)nc2)c1 [Example 46-1, 2-[4-(Difluoromethyl)-1H-pyrazol-5-yl]-5-[(3-methylsulfonylphenyl)methoxy]pyridine] |
| 1500 | 340 | CS(=O)(=O)c1cccc(COc2ccc(-c3ncn[nH]3)nc2)c1 [Example 46-2] |
| 2000 | 33 | CS(=O)(=O)N1CCC[C@H](COc2ccc(-c3cn[nH]c3)nc2)C1 [Example 46-3] |
| 1400 | 39 | CS(=O)(=O)N1CCC[C@@H](COc2ccc(-c3cn[nH]c3)nc2)C1 [Example 46-4] |
